Laboratory results taken from US20110033930A1, “METHOD FOR OBTAINING NGN3-EXPRESSING CELLS AND INSULIN PRODUCING-BETA CELLS” (priority 2008, published 2011).
Like-named read-outs stand apart in the source and are kept apart here.

Experiments:
[1] = system: E13.5 rat pancreatic explants; assay: Dose finding of HDACi in organ culture (cell death); settings: TSA tested from 50 nM to 200 nM; data not shown
Description: (§1) (Invitrogen) supplemented with penicillin (100 U/mL), streptomycin (100 μg/mL), HEPES (10 mmol/L), L-glutamine (2mmol/L), non-essential amino acids (1x, Invitrogen) and 10% heat-inactivated calf serum (HyClone). Cultures were maintained at 37° C. in humidified 95% air/5% CO2. Medium was changed every other day. Explants were cultured in the presence of VPA or TSA (Sigma). We determined the optimal concentration of both inhibitors by testing increasing doses of VPA (from 0.75 mM to 3 mM) and TSA (from 50 nM to 200 nM). […] MS275 and NaB (Sigma) were used at 1 μM and 125 μM, respectively. For cell proliferation assay, 10 μM BrdU (Sigma) was added to the medium during the last hour of culture.

[2] = system: E13.5 rat pancreatic explants; assay: In situ hybridization of Ngn3 transcripts in cultured pancreatic explants; type: cell-based; settings: day5
Description: In situ hybridization: In situ hybridization was performed as previously described (15) and colorimetric development was performed with 5-bromo-4-chloro-3-indolyl phosphate (Promega) and nitroblue tetrazolium (Roche). No signal was obtained when a sense riboprobe was used.

[3] = system: Total cellular HDAC enzyme activity; assay: HDAC enzyme activity assay (total cellular HDAC activity of treated explant extracts); type: biochemical; settings: extracts of cultured rat pancreatic explants treated with 1 mM VPA or 100 nM TSA
Description: HDAC enzyme activity assay: Total cellular HDAC enzyme activity was measured using an HDAC assay kit (Millipore). Briefly, 2 μg of control or VPA- or TSA-treated cell extracts (prepared as described above) were incubated in a 96-well plate with a fluorometric substrate in HDAC assay buffer for 45 min at 37° C. An activator solution was then added to release the fluorophore from the deacetylated substrates, and fluorescence was measured in a plate-reading fluorimeter (excitation=390 nm, emission detection=460 nm).
To study the role of HDACs in pancreas development, the inventors treated rat pancreatic explants with VPA and TSA. They cultured E13.5 rat pancreases on floating filters at the air-medium interface for 14 days. Under such conditions, acinar and endocrine cells develop in a way that replicates pancreas development in vivo (2, 21). […] They next measured total HDAC activity from day 0 to day 14 and found a 65.4%±1.6% decrease between the two stages.

[4] = system: E13.5 rat pancreatic explants; assay: Real-time PCR of lineage markers in cultured pancreatic explants with HDACi; type: cell-based; settings: for Arx expression enhanced / Ngn3 expression peak, higher than in controls / increase in PP expression / increase in glucagon expression: day7; for SPP1 expression: especially after 5 and 7 days of culture; for Ngn3 expression profile: from day1; for Pax4 expression: over 7 days of culture; for increase in levels of Mist1 / increase in levels of P48 / increase in levels of amylase: vs control; for endocrine β/δ lineage: MS275 1 μM, NaB 125 μM
Description: The first day post-coitum was taken as embryonic day 0.5 (E0.5). Pregnant female rats at 13.5 days of gestation were killed by CO2asphyxiation, according to the French Animal Care Committee's guidelines. Dorsal pancreatic buds from E13.5 rat embryos were dissected as described previously (2).
(§2) Organ culture, HDACi treatments, BrdU incorporation: Pancreases were laid on 0.45 μm filters (Millipore) at the air-medium interface in Petri dishes, containing RPMI 1640
RNA extraction and real-time PCR: Total RNA was extracted from pools of at least three pancreases using RNeasy Microkit (Qiagen) and reverse transcribed using Superscript reagents (Invitrogen). Real-time PCR was performed with the 7300 Fast real-time PCR System; each reaction consisted of a mix of Taqman® universal PCR master mix with a specific labelled probe (Applied Biosystem) (21). The comparative method of relative quantification (2^−ΔΔct) (38) was used to calculate expression levels of each target gene, normalized to peptidylpropyl isomerase A (ppia/cyclophilin A). The data are presented as fold changes in gene expression. At least three pools of explants were analyzed per condition and results are expressed as means±SEM. Statistical significance was determined using Student's t test.

[5] = system: class I and class II HDACs; settings: background, refs 17 and Yoshida et al., 1990; cited from earlier work
[6] = system: E13.5 rat pancreatic explants; assay: BrdU incorporation cell proliferation assay in pancreatic explants; type: cell-based; settings: for proliferative rate for glucagon+ cells: 5-day treatment, vs controls; for percentage of PDX1+/BrdU+: 1 day of culture, BrdU during last hour, control 30.4±1.4%; for proliferation of NGN3+ cells: after 3 days of culture
Description: as §1
Immunohistochemistry and quantification: Tissues were fixed in 10% formalin, pre-embedded in low gelling agarose and embedded in paraffin. All sections (4 μm thick) of each pancreatic explant were collected and processed for immunohistochemistry, as described previously (14, 46). Antibodies were used at the following dilutions: mouse anti-insulin (Sigma, 1/2000), guinea pig anti-insulin (DAKO, 1/200), mouse anti-glucagon (Sigma, 1/2000), rabbit anti-amylase (Sigma, 1/300), goat anti-osteopontin/SPP1 (R&D systems, 1/200), rabbit anti-PDXI ((14), 1/1000), mouse anti-BrdU (Amersham, ½), rabbit anti-Ngn3 ((21), 1/1000). The fluorescent secondary antibodies were: fluorescein anti-rabbit and anti-goat antibodies (Jackson Immunoresearch, 1/200), Texas-red anti-mouse antibody (Jackson Immunoresearch, 1/200) Alexa fluor 488 anti-rabbit antibody (Biogenex, 1/400) and AMCA anti-guinea pig antibody (Jackson Immunoresearch, 1/200). Nuclei were stained blue with Hoechst 33342 (0.3 μg/ml, Invitrogen). Ngn3 detection was perfointed as previously described (21) using the Vectastain elite ABC kit (Vector Laboratories). Photographs were taken using a fluorescence microscope (Leitz DMRB, Leica) and digitized using cooled 3CCD cameras (C5810 or C7780, Hamamatsu). The surface area of each staining was quantified with IPLab (Scanalytics). The surface areas per section were summed to obtain the total surface area per explant in mm2. At least three explants were analyzed per condition and results are expressed as means±SEM. Statistical significance was determined using Student's t test.
Thus, they cultured pancreases for 1 day with or without VPA and TSA and added BrdU to the medium during the last hour of culture.

[7] = system: E13.5 rat pancreatic explants; assay: Morphology of pancreases cultured with HDACi; type: cell-based; settings: for morphology of cultured pancreas (branching, cystic structures, acinar structures): after 7 days of culture
Description: as §2
HDACi treatment suppresses acinar differentiation and promotes ductal differentiation: The inventors first compared the morphology of pancreases cultured in the presence or absence of HDACi.

[8] = system: E13.5 rat pancreatic explants; assay: TUNEL labelling of apoptotic amylase or insulin cells; type: cell-based
Description: TUNEL labelling: Terminal deoxynucleotidyltransferase-mediated dUTP-biotin nick end labeling (TUNEL) experiments were performed using an in situ cell death detection kit (Roche) and followed by insulin and amylase immunostaining.
The effects of HDACi treatment on pancreatic differentiation are independent of proliferation and apoptosis: The observed effects of HDACi on pancreatic development could be attributed to a direct effect of HDAC inhibition on the differentiation program itself or to an indirect effect on proliferation/apoptosis. First, the inventors asked whether the massive increase in the number of NGN3+ cells was accompanied by an increased proliferation of early PDX1+ pancreatic precursor cells that would give rise to more NGN3+ endocrine progenitor cells (20). Thus, they cultured pancreases for 1 day with or without VPA and TSA and added BrdU to the medium during the last hour of culture. No difference in BrdU incorporation was seen. The percentage of PDX1+/BrdU+ was 30.4±1.4% in control conditions, 29.3±2.3% with VPA and 31.9±1.4% in TSA-treated pancreases. They next determined whether the greater number of NGN3+ cells was associated with increased proliferation of such cells. […] Given the observed increase in glucagon-expressing cells with HDACi treatment, the inventors also tested for increased proliferation of such cells. […]

[9] = system: E13.5 rat pancreatic explants; assay: Immunohistochemistry and surface-area quantification of cultured pancreatic explants; type: cell-based; settings: for NGN3+ cells: immunohistochemical analysis, day7; for increase in the number of glucagon-expressing cells: immunohistological analysis; for number of insulin+ cells: immunohistology, days 5 and 7; for acinar cell development (surface area occupied by amylase+ cells): vs control
Description: Dorsal pancreatic buds from E13.5 rat embryos were dissected as described previously (2).
as §2

[10] = real-time PCR, 7 days of culture

Row | SMILES | Ngn3 mRNA expression by in situ hybridization [2] | decrease in HDAC activity [3] | NeuroD1 expression ([4]; real-time PCR) | insulin expression [4, 10] | somatostatin expression [4, 10] | Arx expression enhanced ([4]; real-time PCR) | Ngn3 expression peak, higher than in controls ([4]; real-time PCR) | increase in PP expression ([4]; real-time PCR) | increase in glucagon expression ([4]; real-time PCR) | SPP1 expression ([4]; real-time PCR) | Ngn3 expression profile ([4]; real-time PCR) | Pax4 expression ([4]; real-time PCR) | increase in levels of Mist1 ([4]; real-time PCR) | increase in levels of P48 ([4]; real-time PCR) | increase in levels of amylase ([4]; real-time PCR) | HDAC class selectivity [5] | proliferative rate for glucagon+ cells [6] | percentage of PDX1+/BrdU+ [6] | proliferation of NGN3+ cells [6] | morphology of cultured pancreas (branching, cystic structures, acinar structures) [7] | further results
1 | CC(/C=C/C(=O)NO)=C\[C@@H](C)C(=O)c1ccc(N(C)C)cc1 [TSA, trichostatin A] | enhanced Ngn3 expression | 99.2%±0.9% | strongly activated | no differences | no differences | ~11 fold | 14 fold | 6 fold | 25 fold | major increase | dramatic increase | strongly activated | strongly reduced | strongly reduced | strongly reduced | inhibits both class I and class II HDACs | no difference | 31.9±1.4% | neither VPA nor TSA increased the proliferation | the tips of the branched epithelium formed cystic structures | concentrations that result in increased cell death [1]: above 125 nM; somatostatin expression ([4]; after 14 days in culture, data not shown): increased; insulin expression increased compared with controls ([4]; real-time PCR, day9): 2 fold; insulin expression increased compared with controls ([4]; real-time PCR, day11): 3 fold; insulin expression increased compared with controls ([4]; real-time PCR, day14): 5 fold; morphology: translucent buds at the periphery of the pancreas ([7]; after 11 days of culture): developed translucent buds; number of apoptotic cells expressing amylase or insulin ([8]; TUNEL method): neither VPA nor TSA treatments modified the number of apoptotic cells; NGN3+ cells [9]: many were present; increase in the number of glucagon-expressing cells [9]: 4 fold; number of insulin+ cells [9]: no differences; acinar cell development (surface area occupied by amylase+ cells) [9]: much lower
2 | Nc1ccccc1NC(=O)c1ccc(CNC(=O)OCc2cccnc2)cc1 [MS275] | – | – | – | – | – | – | – | – | – | – | – | – | – | – | – | – | – | – | – | – | endocrine β/δ lineage [4]: results similar to those with VPA
3 | CCCC(CCC)C(=O)O [VPA, valproic acid] | enhanced Ngn3 expression | 93.2%±2.3% | significantly lower | dramatic decrease | almost full abolition | around 3 fold | 14 fold | 4 fold | 5 fold | major increase | dramatic increase | dramatic decrease | strongly reduced | strongly reduced | strongly reduced | preferentially targets class I HDACs | no difference | 29.3±2.3% | neither VPA nor TSA increased the proliferation | the tips of the branched epithelium formed cystic structures | insulin expression ([4]; tissues cultured for 14 days): remained dramatically low; number of apoptotic cells expressing amylase or insulin [8]: neither VPA nor TSA treatments modified the number of apoptotic cells; NGN3+ cells [9]: many were present; increase in the number of glucagon-expressing cells [9]: 4 fold; number of insulin+ cells [9]: major decrease; insulin+ cells observed immunohistochemically ([9]; tissues cultured for 14 days): Few; acinar cell development (surface area occupied by amylase+ cells) [9]: much lower
4 | CCCC(=O)[O-].[Na+] [NaB, sodium butyrate] | – | – | – | – | – | – | – | – | – | – | – | – | – | – | – | – | – | – | – | – | endocrine β/δ lineage [4]: results similar to those with TSA
